Measured values reported in US9125913B2, “Bcl-2-selective apoptosis-inducing agents for the treatment of cancer and immune diseases” (AbbVie Inc., priority 2008, dated 2015).

Tested on: GST-Bcl-2
Assay: TR-FRET binding assay, Bcl-2
Conditions: TR-FRET Ki values
Procedure, shortened: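 Compounds serially diluted in DMSO from 50 μM (2× starting concentration, 10% DMSO), mixed with GST-tagged protein, F-Bak peptide probe and Tb-labeled antibody, incubated 3 h at room temperature.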

SMILES	Binding selectivity ratio (Bcl-XL Ki/Bcl-2 Ki)
CC1(C)CCC(CN2CCN(c3ccc(C(=O)NS(=O)(=O)c4ccc(NCC5CCS(=O)(=O)CC5)c([N+](=O)[O-])c4)c(Oc4cccc5[nH]ccc45)c3)CC2)=C(c2ccc(Cl)cc2)C1 [EXAMPLE 301, 4-(4-{[2-(4-chlorophenyl)-4,4-dimethylcyclohex-1-en-1-yl]methyl}piperazin-1-yl)-N-[(4-{[(1,1-dioxidotetrahydro-2H-thiopyran-4-yl)methyl]amino}-3-nitrophenyl)sulfonyl]-2-(1H-indol-4-yloxy)benzamide]	>2268.0
CC1(C)CCC(CN2CCN(c3ccc(C(=O)NS(=O)(=O)c4ccc(NCCCN5CCS(=O)(=O)CC5)c([N+](=O)[O-])c4)c(Oc4ccc5[nH]ccc5c4)c3)CC2)=C(c2ccc(Cl)cc2)C1 [EXAMPLE 266, 4-(4-{[2-(4-chlorophenyl)-4,4-dimethylcyclohex-1-en-1-yl]methyl}piperazin-1-yl)-N-[(4-{[3-(1,1-dioxidothiomorpholin-4-yl)propyl]amino}-3-nitrophenyl)sulfonyl]-2-(1H-indol-5-yloxy)benzamide]	>3607.7
CN(C)CCOc1cccc(-c2ccc(Cl)cc2)c1CN1CCN(c2ccc(C(=O)NS(=O)(=O)c3ccc(NC4CCN(C)CC4)c([N+](=O)[O-])c3)c(Oc3cccc4[nH]ccc34)c2)CC1 [EXAMPLE 205, 4-[4-({4′-chloro-3-[2-(dimethylamino)ethoxy]-1,1′-biphenyl-2-yl}methyl)piperazin-1-yl]-2-(1H-indol-4-yloxy)-N-({4-[(1-methylpiperidin-4-yl)amino]-3-nitrophenyl}sulfonyl)benzamide]	658.6
CC1(C)CCC(CN2CCN(c3ccc(C(=O)NS(=O)(=O)c4ccc(NCCN5CCOCC5)c(S(=O)(=O)C(F)(F)F)c4)c(Oc4ccc5[nH]ccc5c4)c3)CC2)=C(c2ccc(Cl)cc2)C1 [EXAMPLE 351, 4-(4-{[2-(4-chlorophenyl)-4,4-dimethylcyclohex-1-en-1-yl]methyl}piperazin-1-yl)-2-(1H-indol-5-yloxy)-N-({4-[(2-morpholin-4-ylethyl)amino]-3-[(trifluoromethyl)sulfonyl]phenyl}sulfonyl)benzamide]	>418.7
CC1(C)CCC(CN2CCN(c3ccc(C(=O)NS(=O)(=O)c4ccc(NCC5CCCCC5)c([N+](=O)[O-])c4)c(Oc4ccc5[nH]ccc5c4)c3)CC2)=C(c2ccc(Cl)cc2)C1 [EXAMPLE 259, 4-(4-{[2-(4-chlorophenyl)-4,4-dimethylcyclohex-1-en-1-yl]methyl}piperazin-1-yl)-N-({4-[(cyclohexylmethyl)amino]-3-nitrophenyl}sulfonyl)-2-(1H-indol-5-yloxy)benzamide]	>330.9
CC1(C)CCC(CN2CCN(c3ccc(C(=O)NS(=O)(=O)c4ccc(NCCN5CCCC5=O)c([N+](=O)[O-])c4)c(Oc4ccc5[nH]ccc5c4)c3)CC2)=C(c2ccc(Cl)cc2)C1 [EXAMPLE 251, 4-(4-{[2-(4-chlorophenyl)-4,4-dimethylcyclohex-1-en-1-yl]methyl}piperazin-1-yl)-2-(1H-indol-5-yloxy)-N-[(3-nitro-4-{[2-(2-oxopyrrolidin-1-yl)ethyl]amino}phenyl)sulfonyl]benzamide]	1438.5
CC1(C)CCC(CN2CCN(c3ccc(C(=O)NS(=O)(=O)c4ccc(NCCCN5CCOCC5)c(S(=O)(=O)C(F)(F)F)c4)c(Oc4ccc5[nH]ccc5c4)c3)CC2)=C(c2ccc(Cl)cc2)C1 [EXAMPLE 348, 4-(4-{[2-(4-chlorophenyl)-4,4-dimethylcyclohex-1-en-1-yl]methyl}piperazin-1-yl)-2-(1H-indol-5-yloxy)-N-({4-[(3-morpholin-4-ylpropyl)amino]-3-[(trifluoromethyl)sulfonyl]phenyl}sulfonyl)benzamide]	97.1
CC1(C)CCC(CN2CCN(c3ccc(C(=O)NS(=O)(=O)c4cnc(OCC5(F)CCOCC5)c(Cl)c4)c(Oc4cccc5[nH]ncc45)c3)CC2)=C(c2ccc(Cl)cc2)C1 [EXAMPLE 404, N-({5-chloro-6-[(4-fluorotetrahydro-2H-pyran-4-yl)methoxy]pyridin-3-yl}sulfonyl)-4-(4-{[2-(4-chlorophenyl)-4,4-dimethylcyclohex-1-en-1-yl]methyl}piperazin-1-yl)-2-(1H-indazol-4-yloxy)benzamide]	2423
COCCN1CCC(Nc2ccc(S(=O)(=O)NC(=O)c3ccc(N4CCN(CC5=C(c6ccc(Cl)cc6)CC(C)(C)CC5)CC4)cc3Oc3ccc4[nH]ccc4c3)cc2[N+](=O)[O-])CC1 [EXAMPLE 189, 4-(4-{[2-(4-chlorophenyl)-4,4-dimethylcyclohex-1-en-1-yl]methyl}piperazin-1-yl)-2-(1H-indol-5-yloxy)-N-[(4-{[1-(2-methoxyethyl)piperidin-4-yl]amino}-3-nitrophenyl)sulfonyl]benzamide]	358.6
CN1CCN(Nc2ccc(S(=O)(=O)NC(=O)c3ccc(N4CCN(CC5=C(c6ccc(Cl)cc6)CC(C)(C)CC5)CC4)cc3Oc3cccc4[nH]ccc34)cc2[N+](=O)[O-])CC1 [EXAMPLE 190, 4-(4-{[2-(4-chlorophenyl)-4,4-dimethylcyclohex-1-en-1-yl]methyl}piperazin-1-yl)-2-(1H-indol-4-yloxy)-N-({4-[(4-methylpiperazin-1-yl)amino]-3-nitrophenyl}sulfonyl)benzamide]	189.6
COCCOCCNc1ccc(S(=O)(=O)NC(=O)c2ccc(N3CCN(CC4=C(c5ccc(Cl)cc5)CC(C)(C)CC4)CC3)cc2Oc2cccc3[nH]ccc23)cc1[N+](=O)[O-] [EXAMPLE 293, 4-(4-{[2-(4-chlorophenyl)-4,4-dimethylcyclohex-1-en-1-yl]methyl}piperazin-1-yl)-2-(1H-indol-4-yloxy)-N-[(4-{[2-(2-methoxyethoxy)ethyl]amino}-3-nitrophenyl)sulfonyl]benzamide]	505.1
CCN(CC)C1CCC(Nc2ccc(S(=O)(=O)NC(=O)c3ccc(N4CCN(CC5=C(c6ccc(Cl)cc6)CC(C)(C)CC5)CC4)cc3Oc3ccc4[nH]ccc4c3)cc2[N+](=O)[O-])CC1 (centres unmarked) [EXAMPLE 201, 4-(4-{[2-(4-chlorophenyl)-4,4-dimethylcyclohex-1-en-1-yl]methyl}piperazin-1-yl)-N-[(4-{[4-(diethylamino)cyclohexyl]amino}-3-nitrophenyl)sulfonyl]-2-(1H-indol-5-yloxy)benzamide]	196.6
CC1(C)CCC(CN2CCN(c3ccc(C(=O)NS(=O)(=O)c4cnc(OCC5CCOCC5)c(C#N)c4)c(Oc4cccc5[nH]ccc45)c3)CC2)=C(c2ccc(Cl)cc2)C1 [EXAMPLE 386, 4-(4-{[2-(4-chlorophenyl)-4,4-dimethylcyclohex-1-en-1-yl]methyl}piperazin-1-yl)-N-{[5-cyano-6-(tetrahydro-2H-pyran-4-ylmethoxy)pyridin-3-yl]sulfonyl}-2-(1H-indol-4-yloxy)benzamide]	494.5
CCN1CCCC1CNC(=O)c1cc(S(=O)(=O)NC(=O)c2ccc(N3CCN(Cc4ccccc4-c4ccc(Cl)cc4)CC3)cc2Oc2ccccc2)ccc1OC (centres unmarked) [Example 33, 4-{4-[(4′-chloro-1,1′-biphenyl-2-yl)methyl]piperazin-1-yl}-N-{[3-({[(1-ethylpyrrolidin-2-yl)methyl]amino}carbonyl)-4-methoxyphenyl]sulfonyl}-2-phenoxybenzamide]	49.9
